{"source": "patent US20250275948A1", "about": "“(N-[4-(2,3-DIHYDRO-1H-INDEN-5-YL)-1,3-THIAZOL-2-YL]-2-[4-METHYL-4-(NAPHTHALEN-2-YL)-2,5-DIOXOIMIDAZOLIDIN-1-YL]ACETAMIDE AS STABILIZER OF CLOCK:BMAL1 INTERACTION FOR THE TREATMENT OF CIRCADIAN RHYTHM DISEASES AND DISORDERS” (KOC UNIVERSITESI, priority 2022, published 2025)", "key": {"[1]": {"tested_on": "WT, Clock knockout and Bmal1 knockout MEF cells", "assay": "Circadian rhythm monitoring in WT, Clock KO and Bmal1 KO MEF cells transduced with Bmal1-dLuc", "type": "cell-based, mouse", "details": "WT vs Clock KO vs Bmal1 KO MEF cells", "method": "Wild type (WT), Clock knockout (KO), and Bmal1 KO mouse embryonic fibroblast (MEF) cells were transduced with Bmal1-dLuc lentiviral particles to enable us to monitor the effect of CLK95 on circadian oscillation. To this end, virus particles were produced as follow: HEK 293T cells were transfected with 10 μg pLV6-Bmal1-dluc, 9 μg pCMV-ΔR8.2dvpr packaging and lug pCMV-VSVG envelope vectors at ˜70-80% confluency. The plasmid cocktail was mixed with 20 μL PEI in 400 μL DMEM and incubated at room temperature for 10 minutes and cells were transfected. After 16 hours of incubation at 37° C. under 5% CO2, 3 mL fresh D10 medium were added to plates. 48 hours after transfection, cell medium was replaced with 8 mL fresh D10 medium. Lentiviral particles were harvested at 72 and 96 hours post transfection. Collected particles were filtered through 0.45 μM syringe filter and aliquoted (750 μL) for storage at −80° C. for further use.\nWT, Clock KO, and Bmal1 KO MEF cells were transduced with Bmal1-dluc lentiviral particles as follow: Cells were seeded in 35 mm cell culture plates at the density of 1×10^5 cell/plate. […] 72-hours post-transduction cells were synchronized with Dexamethasone (0.1 μM) and prepared for luminescence recording of the circadian oscillation as indicated at section 3.4"}, "[2]": {"tested_on": "CLOCK and BMAL1", "assay": "Subcellular fractionation of U2OS Bmal1-dLuc cells", "type": "cell-based, human", "details": "unsynchronized U2OS Bmal1-dLuc cells, 5 μM, 24 hours", "method": "Subcellular fractionation was performed to explore if CLK95 effects the subcellular localization of core-clock proteins. U2OS Bmal1-dLuc cells were plated with a density of 40×10^4 cell/well in 6 well plate, a day prior to small molecule treatment. Following, cells were treated with either DMSO (0.25%) or 5 μM CLK95. 24 hours after small molecule treatment, cells were harvested to get fractionated. Cells were harvested with 1 mL ice cold-1×PBS, and pelleted at 5000×g for 7 minutes at 4° C. After discarding supernatants, cells were resuspended with 200 μL Cytosolic Lysis Buffer (CLB) (10 mM HEPES pH 7.9, 10 mM KCl, 0.1 mM EDTA pH 8.0, 0.05% NP-40, 1×PIC) and incubated on ice for 10 minutes. Then, samples were centrifuged at 660×g for 5 minutes (4° C.). While supernatants were transferred to new centrifuge tubes as cytosolic fractions, pellets were washed with 200 μL CLB buffer for 3 times. At the end of each wash, samples were centrifugated at 660×g for 5 minutes at 4° C. Next, cell pellets were resuspended in 100 μL Nuclear Lysis Buffer (NLB) (20 mM HEPES pH 7.9, 0.4M NaCl, 1 mM EDTA, 10% Glycerol, 1×PIC) and subjected to sonication (60% power, 10 seconds, 3 cycles) (BANDELIN SONOPULS HD 2070 homogeniser) for 2 times. This step was followed by centrifugation at 15000×g for 5 minutes with the cytosolic fractions. […]"}}, "data": [{"smiles": "CC1(c2ccc3ccccc3c2)NC(=O)N(CC(=O)Nc2nc(-c3ccc4c(c3)CCC4)cs2)C1=O", "note": "(centres unmarked) [CLK95]", "values": [{"measurement": "dependence of circadian phenotype on CLOCK and BMAL1", "setting": "[1]", "value": "effecting the circadian phenotype through CLOCK and BMAL1"}, {"measurement": "nuclear localization of CLOCK and BMAL1", "setting": "[2]", "value": "increasing the nuclear localization of CLOCK and BMAL1"}]}]}
